According to US20070142266A1, “Combination comprising a P-gp inhibitor and an anti-epileptic drug” (priority 2001, published 2007):

Tests used:
P-glycoprotein (P-gp) = assay: In vivo microdialysis in adult female Wistar rats: effect of local P-gp inhibitor perfusion on ECF levels of phenytoin in cerebral cortex; parameters: species or system rat
Method: (§1) In vivo microdialysis in Adult Female Wistar Rats
(§2) The combination of phenytoin (Aldrich, Steinheim, Germany) and a P-gp inhibitor, e.g. PSC833) is given via the microdialysis probe in the right frontal cortex, while a probe in the left cortex served as a vehicle control site. Perfusion with the P-gp inhibitor started 15 to 60 minutes prior to i.p. administration of 50 mg/kg phenytoin. • Animals: Adult female Wistar rats (Harlan-Winkelmann, Germany) kept under controlled environmental conditions are used in the study. • Implantation of guide cannulae: Guide cannulae (CMA/12 polyurethane, Camegie Medicine, Sweden) are implanted into the left and right frontal (motor) cortex under anesthesia. The tips of the guide are positioned at rostral +3.2, lateral +3.2 or 3.2 and ventral 2.0 mm to bregma, coordinates according to Paxinos and Watson, The rat brain in stereotaxic coordinates, Sydney, Academic Press, 1986. • Microdialysis procedure: Microdialysis experiments are performed following a recovery period of at least 3 days after surgery. The microdialysis probe is lowered through the guide cannula to a depth of 5.0 mm according to bregma. 14 to 16 h after insertion, perfusion of the probe is started using Ringer solution (in mM 147 Na^+, 2.3 Ca^2+, 4.0 K^+and 155.6 Cr, pH 6.0). […]

[1] = In vivo microdialysis in adult female Wistar rats: extracellular (ECF) phenytoin levels in cerebral cortex in the absence of a P-gp inhibitor; settings: rat, cerebral cortex extracellular fluid (microdialysate), ip, 50 mg/kg phenytoin i.p., after maximum levels reached, read-out: average half-life of decrease of ECF concentrations of phenytoin (converted)
Method: as §1, §2

| half-life [1] | SMILES | increase of ECF levels of phenytoin above control (ECF plasma ratio of treated site vs vehicle treated controls) (P-glycoprotein (P-gp); 2 mM PSC833 via microdialysis probe, phenytoin 50 mg/kg i.p., ECF plasma ratio comparison) | maximum increase of ECF levels of phenytoin compared to untreated site (P-glycoprotein (P-gp); 2 mM PSC833 via right microdialysis probe started 15 min before phenytoin 50 mg/kg i.p., left cortex vehicle site) |
| --- | --- | --- | --- |
|  | C/C=C/C[C@@H](C)C(=O)[C@H]1C(=O)N[C@@H](C(C)C)C(=O)N(C)CC(=O)N(C)[C@@H](CC(C)C)C(=O)N[C@@H](C(C)C)C(=O)N(C)[C@@H](CC(C)C)C(=O)N[C@@H](C)C(=O)N[C@H](C)C(=O)N(C)[C@@H](CC(C)C)C(=O)N(C)[C@@H](CC(C)C)C(=O)N(C)[C@@H](C(C)C)C(=O)N1C [PSC833, [3′-desoxy-3′-oxo-MeBmt]^1-[Val]^2-Ciclosporin A] | about 150% | 70±20% |
| ~4 h | O=C1NC(=O)C(c2ccccc2)(c2ccccc2)N1 [phenytoin, 5,5-diphenyl-2,4-imidazolidinedione] |  |  |
